In data set [1] the test system is CD75s in BJA-B K20 cells. Description: de novo expression of sialoglycan CD75s by indirect immunofluorescence (antibody HH2). In kind it is cell-based, human. Particulars: serum-free, 5 mM, 0-6 h. The protocol: Kinetics of 9-iodo-NeuAc-induced expression of sialoglycan CD75s in BJA-B K20 cells in comparison with its precursor 6-iodo-ManNAc. Cells were cultivated under serum-free conditions for at least 7 d and then either ManNAc, 6-iodo-ManNAc, 9-iodo-NeuAc or NeuAc (each 5 mM) was added. The de novo expression of CD75s was monitored at the indicated time points by indirect immunofluorescence using fixed and permeabilized cells. Representative confocal pictures of two independent experiments are shown.
The superiority of biosynthetic incorporation of sialic acid variants by NeuAc derivatives over derivatized ManNAc precurors was shown by directly comparing 9-iodo-NeuAc and the corresponding 6-iodo-ManNAc. K20 cells cultivated under serum-free conditions were incubated for 0-6 h with either 9-iodo-NeuAc or 6-iodo-ManNAc prior to analysis of CD75s expression. CD75s is an α-2,6 sialylated cell surface antigen of mature B-lymphocytes which is not detectable with the monoclonal antibody HH2 in K20 cells cultured in the absence of serum. […] We conclude that presentation of C9-modified sialic acids on the cell surface is only possible by medium supplementation with sialic acid analogues, but not with ManNAc analogues. […]

In data set [2] the test system is HL60-I cells. Description: metabolic complementation assay: lectin staining (VVA, LFA, TLM) of analogue-treated cells by flow cytometry. The class given is cell-based, human. Particulars: 5 mM, 24 h; for effect on VVA binding: decrease = masking of GalNAc by sialic acid. Here is the method: Medium supplementation with some synthetic sialic acid analogues restores cell surface sialylation in hyposialylated HL60-I cells. Cells were cultivated in the presence of indicated synthetic sialic acid analogue (5 mM) for 24 h and stained with either directly fluorochrome-coupled lectins (VVA, LFA) or biotin-coupled lectin (TLM) and streptavidin-FITC and analyzed by flow cytometry. Values are given as “relative factor of change” (RFC) of the “mean fluorescence intensity” (MFI) of sialic acid-treated cells relative to untreated cells. The bars represent arithmetic means±SD (n^34) of one (x) or ≧two experiments.
To test whether cells can incorporate synthetic sialic acid analogues from the culture medium, a metabolic complementation assay was performed on endogenously hyposialylated, UDP-GlcNAc-2-epimerase-deficient HL60-I cells.
Cells were cultivated for 24 h in the presence of one of 16 different synthetic sialic acid analogues, carrying distinct C5 or C9 modifications (FIG. 1), and subsequently, changes in cell surface sialylation were assessed by flow cytometry using three fluorochrome-conjugated sialic acid-sensitive lectins. Vicia villosa agglutinin (VVA) detects GalNAc residues, and its binding sites can be masked by the addition of terminal sialic acid residues.
In sugar supplementation assays, cells seeded at 5×10^5 cells/ml in culture medium buffered with 40 mM HEPES (pH 7.2) were cultivated for 24 h in the presence or absence of 5 mM sialic acids (stocks of 100 mM dissolved in H2O, stored at 4° C.).
(§1) Lyophilized FITC-conjugated lectins Vicia villosa (VVA) was obtained from Sigma, dissolved in H2O (1 mg/ml), aliquoted and stored at −20° C. according to the manufacturer's instructions. FITC-conjugated Limax flavus agglutinin (LFA) was from EY Laboratories (San Manteo, Calif., USA) and biotin-coupled Tritrichomonas mobilensis agglutinin (TLM) from Calbiochem. Lectin staining procedure and fluorescence-activated cell scanning on a Becton Dickinson FACScan cytometer using Cellquest II software were carried out as described (Keppler, O. T., Molden-hauer, G., Oppenländer, M., Schwartz-Albiez, R., Berger, E. G., Funderud, S., and Pawlita, M. (1992) Eur J Immunol 22(11), 2777-81). Briefly, cells (3×10^5) were washed twice in cold PBS and then incubated in 100 μl PBS/0.05% NaN3, containing either fluorochrome-conjugated lectins VVA (50 μg/ml), LFA (20 μg/ml), or biotinylated TLM (20 μg/ml) for 45 min on ice in the dark. For biotinylated TLM a secondary incubation step with steptavidin-FITC (20 μg/ml) (Sigma) for 30 min on ice in the dark is required. After washing with PBS, cells were resuspended in 300 μl PBS and analyzed by flow cytometry.

Data set [3] has as its system BJA-B K20 cells. The data set is described as follows: HPLC of membrane-associated sialic acids from analogue-treated cells. The class given is cell-based, human. Particulars: serum-free, 5 mM, 48 h. Here is the method: Sialic acid analogues are incorporated in cell surface glycoconjugates. HPLC chromatograms of DMB-derivatised sialic acids hydrolysed from glycoproteins of sialic acid analogue-treated BJA-B K20 cells. (A) standards, (B) untreated cells, (C) cells cultivated in 5-N-fluoroacNeu, (D) cells cultivated in 9-iodo-NeuAc. Peaks were identified as follows: NeuGc (internal standard), NeuAc, 5-N-fluoroac-Neu, 9-iodo-NeuAc, Na-pyruvate (internal standard). Internal standards were added to each sample.
To confirm that synthetic sialic acid analogues supplementing the medium were taken up and metabolically incorporated as analogues into surface sialoglyco-conjugates the membrane-associated sialic acid fraction was analyzed by High Performance Liquid Chromatography (HPLC). […]
To confirm that the modifications are still present after incorporation into glycoconjugates sialic acids were cleaved off cell surfaces and analyzed by HPLC. […] Sialic acids derivation was performed according to a method as given below and samples were analyzed on a reversed-phase C18 column as described (Keppler, O. T., Stehling, P., Herrmann, M., Kayser, H., Grunow, D., Reutter, W., and Pawlita, M. (1995) J Biol Chem 270(3), 1308-14).

In data set [4] the test system is HL60-I cells. The data set is described as follows: uptake of peracetylated/esterified NeuAc: VVA and TML lectin staining by flow cytometry. Particulars: HL60-I cells, 0.03 to 1 mM (NeuAc 1 or 5 mM), 72 h, 0.5% DMSO. In kind it is cell-based, human. The protocol: Peracetylation of NeuAc only facilitates uptake if the carboxyl group is additionally esterified. Hyposialylated HL60-I cells were cultivated in the presence of indicated synthetic sialic acid analogue (stock solution 200 mM in DMSO) ranging from 0.03 to 1 mM or 0, 1 or 5 mM NeuA for 72 h with DMSO concentrations adjusted to 0.5%. Cells were stained with either directly fluorochrome-coupled lectin VVA, or biotin-coupled lectin (TML) and streptavidin-FITC for analysis by flow cytometry. Values given are relative factors of change of the mean fluorescence intensity of pretreated cells relative to untreated cells. The bars represent arithmetic means±SD (n=3). Molecular structures are given below the diagram.
Sugars are very hydrophilic and it has been shown that increasing the hydrophobicity by peracetylation of hydroxyl groups enables or facilitates uptake of disaccharides (Collins, B. E., Fralich, T. J., Itonori, S., Ichikawa, Y. and Schnaar, R. L. (2000) Glycobiology, 10, 11-20; Sarkar, A. K., Fritz, T. A., Taylor, W. H. and Esko, J. D. (1995) Proc Natl Acad Sci USA, 92, 3323-7; Sarkar, A. K., Rostand, K. S., Jain, R. K., Matta, K. L. and Esko, J. D. (1997) J Biol Chem, 272, 25608-16). For ManNAc derivatives it has been shown that peracetylation reduces required medium concentrations (Collins et al., 2000). The acetyl groups are cleaved-off intracellularly by cellular esterases (Collins et al., 2000; Sarkar et al., 1995; Sarkar et al., 1997) and the derivatives are then processed as known for the non-acetylated sugars. In order to address the question whether peracetylation also facilitates uptake of N-acetylneuraminic acid, HL60-I cells were cultivated in the presence of peracetylated NeuAc at concentrations ranging from 0.03 mM to 1 mM for 3 days. Changes in cell surface sialylation were measured by flow cytometry using Vicia Villosa agglutinin (VVA) and Tritrichomonas mobilensis lectin (TML). […] This represents a reduction in concentration by more than 16-fold and is in a similar range as reported for peracetylated ManNAc and ManNAc (Collins et al., 2000).
as §1
(In flow cytometry, cells or beads pass a laser one at a time.)

A short description of data set [5]: stability under physiological conditions. In kind it is physicochemical. Particulars: most likely hydrolysed to NeuAc in the cytoplasm.

As to `CC(=O)N[C@@H]1C(O)O[C@H](CI)[C@@H](O)[C@@H]1O` (stereo partly drawn) [6-iodo-ManNAc, reference compound], the “effect on CD75s expression within 6 h” value in data set [1] is reported as “did not show any effect”.

Turning to `CC(=O)N[C@H]1[C@H]([C@H](O)[C@H](O)CI)OC(O)(C(=O)O)C[C@@H]1O` (stereo partly drawn) [analogue f, 5-N-acetyl-9-deoxy-9-iodo-neuraminic acid], in data set [2], the “effect on LFA binding” value is “increased binding of LFA”, the “effect on TLM binding” value is given as “increased binding”, the “increase of LFA binding (relative factor of change of mean fluorescence intensity vs untreated cells)” value worked out at 19.2 fold and the “increase of TLM binding (relative factor of change of mean fluorescence intensity vs untreated cells)” value worked out at 6.4 fold. Also, the “effect on VVA binding” value in data set [2] is on record as “significantly decreased VVA-binding”. Besides, the “share of membrane-associated sialic acids consisting of the analogue” value in data set [3] was 86.1%. The “time to strong intracellular CD75s signal” value in data set [1] is ≤ 1 h.

`COC(=O)C1(O)C[C@H](O)[C@@H](NC(C)=O)[C@H]([C@H](O)[C@H](O)CO)O1` (stereo partly drawn) [analogue o, methyl N-acetyl neuraminate]: in data set [2], the “effect on LFA binding” value is “increased binding of LFA”, the “effect on TLM binding” value is “increased binding” and the “effect on VVA binding” value was “significantly decreased VVA-binding”. In data set [2] (listed as NeuAc-Me-Ester), the “effect on LFA binding” value is reported as “very similar to those of NeuAc” and the “effect on TLM binding” value is reported as “very similar to those of NeuAc”. The “effect on cell surface sialylation (VVA and TML binding)” value in data set [4] is “did not affect uptake”. The “stability under physiological conditions” value in data set [5] is reported as “unstable under physiological conditions”.

Values taken from US20050042714A1, “Glycoconjugates of sialic acid derivates, methods for their production and use thereof” (priority 2001, published 2005).
